The numbers were not newly measured in patent US20030232784A1, “Hyaluronic acid-associated superoxide dismutase mimics and their use in the treatment of joint pain” (priority 2002, published 2003), which cites them from elsewhere.

This data set relates to patients with active classical rheumatoid arthritis.

On to “Orgotein®: a bovine SOD with a Cu/Zn catalytic site”, for which the “effect on rheumatoid arthritis symptoms” value (intraarticular injection, patients with active classical rheumatoid arthritis) is listed as “ameliorated a number of symptoms”. For the same substance, the immunogenicity entry (reason for removal from the market) is “development of immune responses against the bovine enzyme”.
